# Data: patent US5478825A, “5-(substituted amino)-1,2,4-triazolo (1,5-A) pyrimidine derivatives” (Egis Gyogyszergyar, priority 1991, dated 1995)
# Read-outs that look alike come from different tables or passages of the source.
# Experiments:
# carrageen oedema = assay: Antiinflammatory (Carrageen oedema inhibiting) effect; format: in vivo
# Description: 4. Antiinflammatory (Carrageen oedema inhibiting) effect
# The experiments were carried out by the method of Winter et al. [Winter, C. A. et al.: Proc. Soc. […] 0.1 ml of a 1 per cent carrageen suspension was injected subcutaneously into the plantar region of one of the hind paws. Rats were fasted for 12 hours and received drinking water ad libitum. One hour before treatment with the test compound the animals were hydrated orally with 30 ml/kg of tap water. The test compounds or the vehicle were administered p.o. in a volume of 10 ml/kg, then one hour later carrageen was applied. The volume of the treated paw was measured by a plethysmometer before and 3 hours after injection in such a way that displacement of the liquid arising from the volume alteration was indicated on a millimeter scale. The volume of the treated paws were compared with those of the control group.
# [1] = test system: anaesthetized cat, left ventricular pressure (dP/dtmax); assay: Positive inotropic effect in anaesthetized cat; format: in vivo; details: Felis catus, iv; for change in vivo at 1 mg/kg: 1 mg/kg i.v.; for change in vivo at 5 mg/kg: 5 mg/kg i.v.; for change in vivo at 10 mg/kg: 10 mg/kg i.v.
# Description: 1. Positive inotropic effect in anaesthetized cat
# The experiments were carried out on male and female cats anaesthetized with chloralose-urethane (40/300 mg/kg i.p. in a volume of 1 ml/kg). A polyethylene catheter was inserted into the left ventricle via the right subclavian artery. The inotropic activity was measured with the aid of the first derivative by time of the left ventricular pressure curve (dP/dtmax). The blood pressure was measured by means of another catheter introduced from the left femoral artery into the upper third part of the abdominal artery. A Statham P23Db transducer and HSE (Hugo Sachs Electronics) amplifiers were used for both pressure measurements. […] The test compounds were administered via a femoral venous cannula.
# right atrium = assay: Positive inotropic effect in guinea pig (isolated right atrium); details: for Frequency: percentage change of atrial frequency; for Concentration force dP/dt: percentage change, 2 Hz, 37° C., concentration not given
# Description: 2. Positive inotropic effect in guinea pig
# The experiments were carried out by the method of Alousi [Alousi, A. A. et al.: J. Cardiovasc. […] Animals weighing 400-600 g were stunned with a blow to the head and exsanguinated. The heart was excised and the right atrium was removed and placed into a modified Tyrode solution of 37° C. It was then preloaded with 2.1 g and stimulated electrically at a rate of 2 Hz by rectangular pulses 0.5 ms in duration. The first derivative by time of the contraction force of the isolated organ (dP/dt) and the atrial frequency were recorded by a polygraph. From the data thus obtained percentage changes were calculated.
# [2] = test system: rats (vasopressin induced coronaria insufficiency); assay: Antianginal effect in rats (vasopressin induced coronaria insufficiency); format: in vivo; details: Rattus norvegicus, iv; i.v. 2 minutes prior to vasopressin; T wave in ECG
# Description: 3.a) Antianginal effect in rats
# Rats weighing 180-220 g were narcotized with chloralose-urethane (70/700 mg/kg i.p.). The ECG was registered with needle electrodes in standard II leading. The experimental coronaria insufficiency was induced with vasopressin (1 NE/kg i.v.). The height of T wave in ECG was measured before and after the administration of vasopressin in both the control and treated groups. Test compounds were administered intravenously 2 minutes prior to the treatment with vasopressin.
# motility of mice = assay: Motility inhibiting activity; format: in vivo; details: 100 mg/kg, orally
# Description: 5. Motility inhibiting activity
# The tests were performed according to the method of Borsy et al. [Arch. Int. Pharmacodyn. 124, 1-2 (1960)]. Groups consisting of 3 mice each were treated orally with different doses of the compounds to be tested. Then the test animals were placed in a Dews equipment. In this equipment the number of interruptions of infrared beam within 30 minutes was counted. The inhibition is expressed as the percentage of the value obtained for the control animals.
# coronary artery = assay: Coronary flow test in dog; format: in vivo
# Description: 3.b) Coronary flow test in dog
# The experiments were carried out in young mongrel do, of both sexes weighing 10-26 kg. The test compounds were administered in 1-5-10 mg/kg doses intravenously. […] Mean arterial blood pressure was recorded on the carotis with a Statham gauge (type: p23Db). The changes of the myocardial contractile forces were followed isometrically with a microdynamometer (type: Experimetria, SG-01) affixed to the anterior wall of the left ventricle. Data were collected on the first derivate of the myocardial contractile force to follow the changes of the contraction and relaxation speed. […] The changes of the heart rate were also followed. The conductivity of the coronary artery (the ratio of the mean coronary flow and the mean blood pressure) was calculated. The mean values were evaluated statistically using Student's test as well as regression analysis and multiple t test.
# [3] = Rattus norvegicus, po, 3 h; read-out: ID30
compound,measurement,setting,value
"CC(=O)Oc1ccccc1C(=O)O [Acetylsalicylic acid, reference compound]",ED30,"carrageen oedema; Rattus norvegicus, po, 3 h, read-out: ID30",62.4 mg/kg
"Nc1cc(-c2ccncc2)c[nH]c1=O [Amrinone, reference compound]",change in vivo at 1 mg/kg,[1],19%
same,change in vivo at 5 mg/kg,[1],53.9%
same,change in vivo at 10 mg/kg,[1],48.3%
same,Frequency,right atrium,28%
same,Concentration force dP/dt,right atrium,33%
"C=CCN(CC=C)c1c2c(nc3nc(SC)nn13)CCC2 [Example 4, 5-(Diallylamino)-2-(methylthio)-6,7-dihydro-8H-cyclopenta[d]-1,2,4-triazolo[1,5-a]pyrimidine]",ED50,[2],1.97 mg/kg
"CSc1nc2nc3c(c(NCc4ccccc4)n2n1)CCC3 [Example 6, 5-(Benzylamino)-2-(methylthio)-6,7-dihydro-8H-cyclopenta[d]-1,2,4-triazolo[1,5-a]pyrimidine]",ED50,[2],1.49 mg/kg
"CSc1nc2nc3c(c(NCc4ccc(Cl)cc4)n2n1)CCC3 [Example 7, 5-(4-Chlorobenzylamino)-2-(methylthio)-6,7-dihydro-8H-cyclopenta[d]-1,2,4-triazolo[1,5-a]pyrimidine]",ED30,carrageen oedema; [3],200 mg/kg
"CSc1nc2nc3c(c(N4CCOCC4)n2n1)CCC3 [Example 8, 2-(Methylthio)-5-morpholino-6,7-dihydro-8H-cyclopenta[d]-1,2,4-triazolo[1,5-a]pyrimidine]",change in vivo at 1 mg/kg,[1],42.8%
same,change in vivo at 5 mg/kg,[1],76%
same,change in vivo at 10 mg/kg,[1],86.3%
same,Frequency,right atrium,-5%
same,Concentration force dP/dt,right atrium,86%
"CSc1nc2nc3c(c(N4CCN(CCO)CC4)n2n1)CCC3 [Example 9, 5-[4-(2-Hydroxyethyl)piperazino]-2-(methylthio)-6,7-dihydro-8H-cyclopenta[d]-1,2,4-triazolo[1,5-a]pyrimidine]",ED50,[2],~2 mg/kg
"CSc1nc2nc3c(c(NCCN4CCOCC4)n2n1)CCC3 [Example 10, 2-(Methylthio)-5-[N-(2-morpholinoethyl)]amino-6,7-dihydro-8H-cyclopenta[d]-1,2,4-triazolo[1,5-a]pyrimidine]",ED30,carrageen oedema; [3],120 mg/kg
same,ED50,[2],1.47 mg/kg
"C1CCN(c2c3c(nc4nc(N5CCOCC5)nn24)CCC3)CC1 [Example 16, 2-Morpholino-5-piperidino-6,7-dihydro-8H-cyclopenta[d]-1,2,4-triazolo[1,5-a]pyrimidine]",Change in motility vs control,motility of mice,-53%
same,ED50,[2],1.52 mg/kg
"CSc1nc2nc3c(c(NCCCN4CCOCC4)n2n1)CCCC3 [Example 19, 2-(Methylthio)-5-[N-(3-morpholinopropyl)]amino-6,7,8,9-tetrahydro-1,2,4-triazolo[5,1-b]quinazoline]",change in vivo at 1 mg/kg,[1],35%
same,change in vivo at 5 mg/kg,[1],72.8%
same,change in vivo at 10 mg/kg,[1],90.6%
same,Frequency,right atrium,-2%
same,Concentration force dP/dt,right atrium,171%
"CN(C)CCCNc1c2c(nc3nc(N4CCOCC4)nn13)CCCC2 [Example 22, 5-[N-(3-Dimethylaminopropyl)]amino-2-morpholino-6,7,8,9-tetrahydro-1,2,4-triazolo[5,1-b]quinazoline]",ED50,[2],~2 mg/kg
"CCN(CC)c1c2c(nc3nc(N(C)C)nn13)CCCS2 [Example 26, 5-(Diethylamino)-2-(dimethylamino)-7,8-dihydro-9H-thiopyrano[3,2-d]-1,2,4-triazolo[1,5-a]pyrimidine]",ED30,carrageen oedema; [3],170 mg/kg
"CC(C)Sc1nc2nc3c(c(NCCCN4CCOCC4)n2n1)CCCC3 [Example 30, 2-(1-Methylethylthio)-5-[N-(3-morpholinopropyl)]amino-6,7,8,9-tetrahydro-1,2,4-triazolo[5,1-b]quinazoline]",change in vivo at 1 mg/kg,[1],22.3%
same,change in vivo at 5 mg/kg,[1],53.8%
same,change in vivo at 10 mg/kg,[1],86.8%
same,Conductivity of the coronary artery,coronary artery; 1 mg/kg i.v.,166%
same,Conductivity of the coronary artery,coronary artery; 5 mg/kg i.v.,397%
same,Conductivity of the coronary artery,coronary artery; 10 mg/kg i.v.,481%
"CCSc1nc2nc3c(c(NCCN4CCOCC4)n2n1)CCCC3 [Example 31, 2-(Ethylthio)-5-[N-(2-morpholinoethyl)]amino-6,7,8,9-tetrahydro-1,2,4-triazolo[5,1-b]quinazoline]",change in vivo at 1 mg/kg,[1],46.5%
same,change in vivo at 5 mg/kg,[1],131%
same,change in vivo at 10 mg/kg,[1],129%
"CSc1nc2nc3c(c(NCCN4CCOCC4)n2n1)CCCCCCCCCC3 [Example 35, 2-(Methylthio)-5-[N-(2-morpholinoethyl)]amino-6,7,8,9,10,11,12,13,14,15-decahydro-cyclododeca[d]-1,2,4-triazolo[1,5-a]pyrimidine]",Frequency,right atrium,8%
same,Concentration force dP/dt,right atrium,79%
same,Conductivity of the coronary artery,coronary artery; 1 mg/kg i.v.,256%
same,Conductivity of the coronary artery,coronary artery; 5 mg/kg i.v.,940%
same,Conductivity of the coronary artery,coronary artery; 10 mg/kg i.v.,1030%
"CSc1nc2nc3c(c(NCCN4CCOCC4)n2n1)CCCCC3 [Example 37, 2-(Methylthio)-5-[N-(2-morpholinoethyl)]amino-6,7,8,9-tetrahydro-10H-cyclohepta[d]-1,2,4-triazolo[1,5-a]pyrimidine]",Conductivity of the coronary artery,coronary artery; 1 mg/kg i.v.,188%
same,Conductivity of the coronary artery,coronary artery; 5 mg/kg i.v.,371%
same,Conductivity of the coronary artery,coronary artery; 10 mg/kg i.v.,780%
"CSc1nc2nc3c(c(NCCN4CCOCC4)n2n1)SCCC3 [Example 39, 2-(Methylthio)-5-[N-(2-morpholinoethyl)]amino-7,8-dihydro-9H-thiopyrano[3,2-d]-1,2,4-triazolo[1,5-a]pyrimidine]",Frequency,right atrium,-12%
same,Concentration force dP/dt,right atrium,51%
"CSc1nc2nc3c(c(NCCN4CCOCC4)n2n1)CCN(Cc1ccccc1)C3 [Example 46, 8-Benzyl-2-(methylthio)-5-[N-(2-morpholinoethyl)]amino-6,7,8,9-tetrahydropyrido[3,4-d]-1,2,4-triazolo[1,5-a]pyrimidine]",Frequency,right atrium,-15%
same,Concentration force dP/dt,right atrium,80%
"COc1ccc(CNc2c3c(nc4nc(SC)nn24)CCC3)cc1 [Example 50, 2-(Methylthio)-5-(4-methoxybenzylamino)-6,7-dihydro-8H-cyclopenta[d]-1,2,4-triazolo[1,5-a]pyrimidine]",ED30,carrageen oedema; [3],190 mg/kg
"CN(C)c1nc2nc3c(c(NCCCN4CCOCC4)n2n1)SCCC3 [Example 53, 2-(Dimethylamino)-5-[N-(3-morpholinopropyl)]amino7,8-dihydro-9H-thiopyrano[3,2-d]-1,2,4-triazolo[1,5-a]pyrimidine]",change in vivo at 0.5 mg/kg,[1]; 0.5 mg/kg i.v.,35.5%
same,change in vivo at 1 mg/kg,[1],48%
same,change in vivo at 5 mg/kg,[1],95%
same,change in vivo at 10 mg/kg,[1],93.6%
"CSc1nc2nc3c(c(N4CCN(Cc5ccccc5)CC4)n2n1)CCC3 [Example 54, 5-(4-Benzylpiperazino)-2-(methylthio)-6,7-dihydro-8H-cyclopenta[d]-1,2,4-triazolo[1,5-a]pyrimidine]",ED30,carrageen oedema; [3],85 mg/kg
"CCOC(=O)CNc1c2c(nc3nc(SC)nn13)CCC2 [Example 60, Ethyl N-[2-methylthio-6,7-dihydro-8H-cyclopenta[d]-1,2,4-triazolo[1,5-a]pyrimidin-5-yl]glycinate]",ED50,[2],~2 mg/kg
"CC(=O)Nc1ccc(O)cc1 [Paracetamol, reference compound]",ED30,carrageen oedema; [3],195 mg/kg
